Consider ten compounds from PubChem BioAssay (NCI).

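Exposure lasted 48 hours, with cells grown in 96-well plates and compounds tested at five concentrations. TGI: concentration producing complete growth inhibition.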

What all share (assay): inhibition of tumour cell growth, NCI panel, 48 h
The subject of experiment [1] is ACHN renal.
For experiment [2], the system named is COLO 205 colon.
Experiment [3] deals with HCC-2998 colon.
In experiment [4] the test system is HCT-116 colon.
The test system of experiment [5] is HS 578T breast.
The test system of experiment [6] is HT29 colon.
Experiment [7] deals with IGROV1 ovarian.
Experiment [8] relates to NCI-H460 lung.
For experiment [9], the system named is NCI-H522 lung.
Experiment [10] deals with SF-295 CNS.
Experiment [11] concerns SK-OV-3 ovarian.
The test system of experiment [12] is SN12C renal.
In experiment [13] the test system is SNB-75 CNS.
In experiment [14] the test system is T-47D breast.

As for `Nc1nc(Cl)cc(Nc2cc(Cl)cc(Cl)c2)n1`, the TGI in experiment [1] is 56.8 µM; in [2], 41.4 µM; in experiment [3], 32.8 µM; in experiment [4], 33.3 µM; in experiment [5] it was 41.1 µM; in [6], 30.6 µM. The TGI amounted to 35.4 µM in [7]; 32.1 µM in experiment [8]; 24.3 µM in experiment [9]; 38.4 µM in [10]; 35.8 µM in experiment [11]; 40.7 µM in [12]. Besides, the results for the TGI in experiment [13] and in experiment [14] were 39.5 µM and 98.9 µM, respectively.

Turning to `Cc1ccc2c(n1)C(=O)c1ccccc1C2=O`, the TGI was above 100 µM in experiment [1]; 37 µM in experiment [2]; above 92.2 µM in experiment [3]; 61.8 µM in [4]; above 100 µM in experiment [5]; above 87.9 µM in experiment [6]. Besides, the TGI in experiment [7] is 73.4 µM; in [8] it was above 69 µM; in [9], 52.4 µM; in [10] it was above 83.3 µM; in experiment [11] it was above 100 µM; in experiment [12], above 88.2 µM. The TGI in [13] was 92.4 µM; in [14], above 85 µM.

Regarding `CN(C)c1ccc(/C=C/C=C(/C#N)c2ccccc2)cc1`, the TGI in [1] is above 100 µM; in [2], above 92.1 µM; in experiment [3] it was above 85.3 µM; in experiment [4], above 77 µM; in experiment [5], 69.2 µM; in experiment [6], 40.6 µM. Moreover, the TGI in experiment [7] was above 100 µM; in [8], 83.7 µM; in experiment [9] it was above 65.7 µM; in experiment [10], above 100 µM; in experiment [11], above 74.9 µM; in [12] it was above 100 µM. The results for the TGI in experiment [13] and in experiment [14] were 76 µM and above 100 µM, respectively.

In the case of `COC(=O)/N=[N+](\[O-])C(c1ccc(OC)cc1)C1CCCCC1` (stereo not given), the TGI in experiment [1] was determined as 16.3 µM; in [2], 3.36 µM; in experiment [3], 16.1 µM; in [4] it was 4.41 µM; in experiment [5], 40.7 µM; in experiment [6], 5.62 µM. Besides, the TGI in [7] was above 100 µM; in [8], 7.98 µM; in experiment [9], 5.1 µM; in experiment [10], 16.4 µM; in experiment [11] it was 18.2 µM; in experiment [12], 11.3 µM. Moreover, the TGI in experiment [13] is 20.8 µM; in [14], 40.3 µM.

With `COCCOCCOC1=C(Cl)C(=O)c2c(O)ccc(O)c2C1=O`, the TGI in [1] was determined as 3.5 µM; in experiment [2], 2.45 µM; in [3] it was 34 µM; in [4], 2.46 µM; in [5] it was 7.9 µM; in [6], 8.73 µM. For the same compound, the TGI in experiment [7] was found to be 7.37 µM; in [8], 29.8 µM; in experiment [9], 2.99 µM; in experiment [10] it was 27.1 µM; in experiment [11], 33.3 µM; in experiment [12], 3.7 µM. The TGI in experiment [13] came out at 31.5 µM; in experiment [14] it was 6.64 µM.

As to `CCOC(=O)CCC(NC(=O)c1ccc(N2CCN(c3c(C)nc(N)nc3N)CC2)cc1)C(=O)OCC` (stereo not given), the TGI in experiment [1], in experiment [2], in [3], in experiment [4], in [5] and in experiment [6] was above 100 µM in each case. For the same compound, the TGI in experiment [7] is above 100 µM; in [8], 96.9 µM; in experiment [9], above 100 µM; in experiment [10] it was above 100 µM; in [11] it was above 100 µM; in experiment [12], above 100 µM. For the same compound, the TGI in [13] and in [14] was above 100 µM each time.

Regarding `COc1cccc(-c2cc(=O)c3c(C)ccnc3[nH]2)c1`, the TGI in [1] is above 100 µM; in experiment [2] it was 0.0854 µM; in experiment [3], 0.27 µM; in experiment [4] it was above 100 µM; in experiment [5], above 100 µM; in experiment [6] it was above 100 µM. In addition, the TGI was above 100 µM in experiment [7]; above 34.4 µM in experiment [8]; 0.226 µM in experiment [9]; above 100 µM in experiment [10]; above 100 µM in experiment [11]; above 100 µM in experiment [12]. In addition, the TGI in experiment [13] was 0.0417 µM; in experiment [14], above 100 µM.

`O=C(N/N=C\c1ccc2ccccc2c1)Nc1ccc([N+](=O)[O-])cc1`: the TGI in experiment [1] is above 63.8 µM; in experiment [2], above 60 µM; in experiment [3], above 63.3 µM; in experiment [4], above 59 µM; in experiment [5], above 100 µM; in experiment [6] it was above 75.6 µM. Moreover, the TGI was above 100 µM in experiment [7]; above 65.1 µM in experiment [8]; above 66.8 µM in experiment [9]; above 68.9 µM in [10]; above 59.8 µM in experiment [11]; above 59.8 µM in experiment [12]. Also, the results for the TGI in experiment [13] and in experiment [14] were above 100 µM and above 59 µM, respectively.

Consider `CCC(CCCC[C@@H]1CC[C@H]2CC(=O)C[C@@H]12)OC` (stereo not given in full), for which the TGI in [1], in [2], in experiment [3], in experiment [4], in [5] and in experiment [6] was above 100 µM throughout. Also, the TGI in experiment [7], in [8], in experiment [9], in experiment [10], in [11] and in experiment [12] was above 100 µM each time. Also, the TGI in experiment [13] and in [14] was above 100 µM in each case.

Take `Cc1ccc(N=C2C(=O)C3=C(OC(C)(C)CC3)c3ccccc32)cc1`: the TGI is 1.54 µM in [1]; 3.29 µM in experiment [2]; 3.36 µM in [3]; 1.05 µM in experiment [4]; above 23.2 µM in [5]; 1.15 µM in experiment [6]. In addition, the TGI in experiment [7] was 2.03 µM; in experiment [8], 3.96 µM; in experiment [9], 3 µM; in experiment [10], 2.7 µM; in experiment [11], 3.1 µM; in experiment [12], 1.73 µM. Moreover, the TGI in experiment [13] was determined as 2.51 µM; in experiment [14], 1.37 µM.
